Laboratory results from patent publication US12071424B2, “IRE1 small molecule inhibitors” (Cornell University, priority 2017, dated 2024).

target: T1, IRE1a (Homo sapiens, UniProt O75460); experiment: In vitro FRET assay (IRE1a cleavage of XBP1 RNA probe); type: biochemical; settings: 2 nM SignalChem IRE1a, tested as Formic Acid Salt (37: HCl Salt)
T1 construct: purchased SignalChem
Experimental: In vitro FRET assay was performed to evaluate the ability of select compounds to inhibit IRE1, the results of which are summarized in Table 3. To perform the in vitro FRET assay, 1× complete assay buffer (CAB: […], 50 mM sodium citrate pH 7.15, 1 mM magnesium acetate, 0.02% tween 20) was used to SignalChem IRE1a protein to a final concentration of 2 nM. Selected compounds were serially diluted with DMSO in a non-binding black 384-well plate for a total of 15 ul in each well. 2 ul of the serially diluted compound or DMSO control were then added to new wells containing 98 ul of 1× CAB, for a total volume of 100 ul, 10 ul of which were then transferred to wells of a new plate. 5 ul of the diluted IRE1a was then added to each well. 5 ul of a […] XBP1 RNA probe was then added to each well. Fluorescence was then read over 30 minutes in kinetic mode (485/515 nm).
Two RNA probes were used, XBP1 wildtype (SEQ ID NO: 2) which is able to be spliced by active IRE1a or XBP1 mutant (SEQ ID NO: 3) which is unable to be spliced. Each probe contained a 5′ 6-FAM modification and a 3′ IOWA black FQ modification. […]

T1 sequence (O75460 19-977): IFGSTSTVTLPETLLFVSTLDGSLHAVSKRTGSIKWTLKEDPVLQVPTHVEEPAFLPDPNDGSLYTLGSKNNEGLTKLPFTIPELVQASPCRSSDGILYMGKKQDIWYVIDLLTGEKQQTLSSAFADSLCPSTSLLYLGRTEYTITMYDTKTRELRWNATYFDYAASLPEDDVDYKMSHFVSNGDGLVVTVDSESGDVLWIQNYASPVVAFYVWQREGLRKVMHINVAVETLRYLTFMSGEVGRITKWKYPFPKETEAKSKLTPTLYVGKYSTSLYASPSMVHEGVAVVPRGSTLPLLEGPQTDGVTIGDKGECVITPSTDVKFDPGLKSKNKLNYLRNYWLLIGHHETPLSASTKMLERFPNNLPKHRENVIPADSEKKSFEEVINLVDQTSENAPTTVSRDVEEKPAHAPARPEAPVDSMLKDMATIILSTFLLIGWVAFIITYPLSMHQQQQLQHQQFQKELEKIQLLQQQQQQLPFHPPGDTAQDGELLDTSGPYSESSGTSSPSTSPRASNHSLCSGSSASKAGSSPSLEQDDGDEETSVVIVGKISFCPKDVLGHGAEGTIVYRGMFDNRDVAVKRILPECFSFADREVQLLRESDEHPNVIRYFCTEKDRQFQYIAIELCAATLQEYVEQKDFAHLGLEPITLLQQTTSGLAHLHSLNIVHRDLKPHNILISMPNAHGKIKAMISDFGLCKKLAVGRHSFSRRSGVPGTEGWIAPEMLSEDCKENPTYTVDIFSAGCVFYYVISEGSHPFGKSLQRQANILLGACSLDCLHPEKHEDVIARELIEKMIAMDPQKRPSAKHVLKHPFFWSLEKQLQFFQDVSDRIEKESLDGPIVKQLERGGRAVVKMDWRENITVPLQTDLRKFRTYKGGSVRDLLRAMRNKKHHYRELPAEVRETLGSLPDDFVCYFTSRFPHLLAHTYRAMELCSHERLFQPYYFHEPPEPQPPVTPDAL

| SMILES | IC50 [nM] |
| --- | --- |
| Cc1cc(N(C)S(=O)(=O)c2ccccc2Cl)ccc1-c1cc(O)c2nc(N[C@H]3CC[C@H](N)CC3)ncc2c1 [Compound 30, N-(4-(2-(((1r,4r)-4-aminocyclohexyl)amino)-8-hydroxyquinazolin-6-yl)-3-methylphenyl)-2-chloro-N-methylbenzene-sulfonamide] | 50 to 100 |
| CCc1cc(-c2ccc(N(C)S(=O)(=O)c3ccccc3Cl)cc2C)cc2cnc(N[C@H]3CC[C@H](N)CC3)nc12 [Compound 31, N-(4-(2-(((1r,4r)-4-aminocyclohexyl)amino)-8-ethylquinazolin-6-yl)-3-methylphenyl)-2-chloro-N-methylbenzene-sulfonamide] | 100 to 10000 |
| COc1cc(-c2ccc(NS(=O)(=O)c3ccccc3Cl)cc2C)cc2cnc(N[C@H]3CC[C@H](N)CC3)nc12 [Compound 36, N-(4-(2-(((1r,4r)-4-aminocyclohexyl)amino)-8-methoxyquinazolin-6-yl)-3-methylphenyl)-2-chlorobenzene-sulfonamide] | ≤ 5 |
| CCc1cc(-c2sc(NS(=O)(=O)c3ccccc3Cl)nc2C)cc2cnc(N[C@H]3CC[C@H](N)CC3)nc12 [Compound 38] | ≤ 5 |
| CCc1cc(-c2cnc(NS(=O)(=O)c3ccccc3Cl)nc2)cc2cnc(N[C@H]3CC[C@H](N)CC3)nc12 [Compound 39, N-(5-(2-(((1r,4r)-4-aminocyclohexyl)amino)-8-ethylquinazolin-6-yl)pyrimidin-2-yl)-2-chlorobenzene-sulfonamide] | ≤ 5 |
| CC(C)c1cc(-c2cc(NS(=O)(=O)c3ccccc3Cl)nn2C)cc2cnc(N[C@H]3CC[C@H](N)CC3)nc12 [Compound 40, N-(5-(2-(((1r,4r) 4-aminocyclohexyl)amino)-8-isopropylquiazolin-6-yl)-1-methyl-1H-pyrazol-3-yl)-2-chlorobenzene-sulfonamide] | ≤ 5 |
| CCc1cc(-c2cnc(NS(=O)(=O)c3ccccc3Cl)s2)cc2cnc(N[C@H]3CC[C@H](N)CC3)nc12 [Compound 41] | ≤ 5 |
| CCc1cc(-c2cc(F)c(NS(=O)(=O)c3ccccc3Cl)cc2OC)cc2cnc(N[C@H]3CC[C@H](N)CC3)nc12 [Compound 42, N-(4-(2-(((1r,4r)-4-aminocyclohexyl)amino)-8-ethylquinazolin-6-yl)-2-fluoro-5-methoxyphenyl)-2-chlorobenzene-sulfonamide] | ≤ 5 |
| CCc1cc(-n2cc(NS(=O)(=O)c3ccccc3Cl)cn2)cc2cnc(N[C@H]3CC[C@H](N)CC3)nc12 [Compound 43, N-(1-(2-(((1r,4r)-4-aminocyclohexyl)amino)-8-ethylquinazolin-6-yl)-1H-pyrazol-4-yl)-2-chlorobenzene-sulfonamide] | ≤ 5 |
| COc1cc(-c2cc(NS(=O)(=O)c3ccccc3Cl)nn2C)cc2cnc(N[C@H]3CC[C@H](N)CC3)nc12 [Compound 45, N-(5-(2-(((1r,4r)-4-aminocyclohexyl)amino)-8-methoxyquinazolin-6-yl)-1-methyl-1H-pyrazol-3-yl)-2-chlorobenzene-sulfonamide] | 50 to 100 |
| N[C@H]1CC[C@H](Nc2ncc3cc(-c4ccc(NS(=O)(=O)c5ccccc5Cl)nn4)ccc3n2)CC1 [Compound 49, N-(6-(2-(((1r,4r)-4-aminocyclohexyl)amino)quinazolin-6-yl)pyridazin-3-yl)-2-chlorobenzene-sulfonamide] | ≤ 5 |
| N[C@H]1CC[C@H](Nc2ncc3cc(-c4ccc(NS(=O)(=O)c5ccccc5Cl)c(F)c4)ccc3n2)CC1 [Compound 50, N-(4-(2-(((1r,4r)-4-aminocyclohexyl)amino)quinazolin-6-yl)-2-fluorophenyl)-2-chlorobenzene-sulfonamide] | ≤ 5 |
| CCc1cc(-c2cc(F)c(NS(=O)(=O)c3ccccc3Cl)c(F)c2)cc2cnc(N[C@H]3CC[C@H](N)CC3)nc12 [Compound 63, N-(4-(2-(((1r,4r)-4-aminocyclohexyl)amino)-8-ethylquinazolin-6-yl)-2,6-difluorophenyl)-2-chlorobenzene-sulfonamide] | ≤ 5 |

Now from value to compound:

| IC50 [nM] | SMILES |
| --- | --- |
| ≤ 5 | CCc1cc(NS(=O)(=O)c2ccccc2Cl)nnc1-c1cc(CC)c2nc(N[C@H]3CC[C@H](N)CC3)ncc2c1 [Compound 96, N-(6-(2-(((1r,4r)-4-aminocyclohexyl)amino)-8-ethylquinazolin-6-yl)-5-ethylpyridazin-3-yl)-2-chlorobenzenesulfonamide] |
| 50 to 100 | CCc1cc(-c2ccc(NS(=O)(=O)c3ccccc3Cl)nc2C)cc2cnc(N[C@H]3CC[C@H](N(C)CC(F)(F)F)CC3)nc12 [Compound 126, 2-chloro-N-(5-(8-ethyl-2-(((1r,4r)-4-(methyl(2,2,2-trifluoroethyl)amino)cyclohexyl)amino)quinazolin-6-yl)-6-methylpyridin-2-yl)benzenesulfonamide] |
| 5 to 50 | COc1nc(NS(=O)(=O)c2ccccc2Cl)ccc1-c1cc(C)c2nc(N[C@H]3CC[C@@H](N(C)C)CC3)ncc2c1 [Compound 139, 2-chloro-N-(5-(2-(((1s,4s)-4-(dimethylamino)cyclohexyl)amino)-8-methylquinazolin-6-yl)-6-methoxypyridin-2-yl)benzenesulfonamide] |
| 5 to 50 | CCc1cc(-c2cc(F)c(NS(=O)(=O)c3ccccc3Cl)nc2OC)cc2cnc(N[C@H]3CC[C@@H](N(C)C)CC3)nc12 [Compound 142, 2-chloro-N-(5-(2-(((1s,4s)-4-(dimethylamino)cyclohexyl)amino)-8-ethylquinazolin-6-yl)-3-fluoro-6-methoxypyridin-2-yl)benzenesulfonamide] |
| 5 to 50 | CCc1cc(-c2ccc(NS(=O)(=O)c3ccccc3Cl)nc2OC)cc2cnc(N[C@H]3CC[C@@](C)(N(C)C)CC3)nc12 [Compound 143, 2-chloro-N-(5-(2-(((1s,4s)-4-(dimethylamino)-4-methylcyclohexyl)amino)-8-ethylquinazolin-6-yl)-6-methoxypyridin-2-yl)benzenesulfonamide] |
| 50 to 100 | CCc1cc(-c2cc(F)c(NS(=O)(=O)c3ccccc3Cl)nc2OC)cc2cnc(N[C@H]3CC[C@@](C)(N(C)C)CC3)nc12 [Compound 144, 2-chloro-N-(5-(2-(((1s,4s)-4-(dimethylamino)-4-methylcyclohexyl)amino)-8-ethylquinazolin-6-yl)-3-fluoro-6-methoxypyridin-2-yl)benzenesulfonamide] |
| 5 to 50 | COc1nc(NS(=O)(=O)c2ccccc2Cl)c(F)cc1-c1cc(C)c2nc(N[C@H]3CC[C@@H](N(C)C)CC3)ncc2c1 [Compound 147, 2-chloro-N-(5-(2-(((1s,4s)-4-(dimethylamino)cyclohexyl)amino)-8-methylquinazolin-6-yl)-3-fluoro-6-methoxypyridin-2-yl)benzenesulfonamide] |
| 100 to 10000 | Cc1nc(NS(=O)(=O)c2ccccc2Cl)c(F)cc1-c1cc(F)c2nc(N[C@H]3CC[C@H](N(C)C)CC3)ncc2c1 [Compound 156, 2-chloro-N-(5-(2-(((1r,4r)-4-(dimethylamino)cyclohexyl)amino)-8-fluoroquinazolin-6-yl)-3-fluoro-6-methylpyridin-2-yl)benzenesulfonamide] |

tested on: IRE1a; experiment: IRE1a Endoribonuclease Nanoluciferase Assay (XBP1 luciferase reporter in 293T cells); type: cell-based, human; settings: Homo sapiens, HEK-293T, ER stressor, tested as Formic Acid Salt (37: HCl Salt)
Experimental: Compounds disclosed herein assessed for disruption of IRE1 signaling using a IRE1a Endoribonuclease Nanoluciferase Assay. Briefly, 25×10^5 293T cells were seeded in a 10 cm^2 tissue culture plate. About 24 hours later, the cells were transfected with Effectene. In a 15 mL tube, the following was added: 2 ug XBP1 luciferase reporter plasmid (PGK-Luc2-P2A-XBP1u-Nanoluciferase-Pest); 300 ul EC buffer; and 16 ul Enhancer, followed by incubation at room temp for 5 minutes. Next, 60 ul Effectene (Qiagen 301427) was added, followed by incubation at room temperature for 10 minutes. 2.6 mL cDMEM media was added. Old media was aspirated from the cells, followed by addition of 7 mL fresh media. Full transfection mixture was added dropwise to cells. Cells were incubated for 6 hours, followed by trypsinization, centrifugation and resuspension in 11 mL fresh cDMEM media. 100 uL of cells were plated per a well in a 96 well plate. A day later, ER stressors of choice +/−inhibitors were added. To harvest, media was aspirated from cells completely, then 50 uL 1× passive lysis buffer (Promega: E1941) was added per well and put on shaker (300 rpm) for 30 minutes at room temperature. Cells were centrifuged, and 15 uL sample per well was added to a new, opaque white 384 well plate (Corning 3570). 15 uL OneGlo (nanoluciferase kit, Promega N1630) was added. Plates were spun down, placed on shaker (300 rpm) for 10 minutes. Plates were read on luminometer, 1000 ms integration time per well. 15 uL Stop an Glo (nanoluciferase kit) was added. Plates were spun down, placed on shaker (300 rpm) for 10 minutes. Plates were read on luminometer, 1000 ms second integration time per well. Recordings are provided below in Table 4.

| SMILES | EC50 [nM] |
| --- | --- |
| CCc1cc(-c2ccc(NS(=O)(=O)c3ccccc3Cl)c(F)c2)cc2cnc(N[C@H]3CC[C@H](NC(=O)[C@@H](N)C(C)C)CC3)nc12 [Compound 58, (S)-2-amino-N-((1r,4S)-4-((6-(4-((2-chlorophenyl)sulfonamido)-3-fluorophenyl)-8-ethylquinazolin-2-yl)amino)cyclohexyl)-3-methylbutanamide] | ≤ 5 |
| CCc1cc(-c2ccc(NS(=O)(=O)c3ccccc3Cl)c(F)c2)cc2cnc(N[C@@H]3CC[C@H](N)[C@H](C)C3)nc12 [Compound 70, N-(4-(2-(((1R,3R,4S)-4-amino-3-methylcyclohexyl)amino)-8-ethylquinazolin-6-yl)-2-fluorophenyl)-2-chlorobenzene-sulfonamide] | ≤ 5 |
| CCc1cc(-c2ccc(NS(=O)(=O)c3ccccc3Cl)c(F)c2)cc2cnc(N[C@H]3CCCNC3)nc12 [Compound 73, (S)-2-chloro-N-(4-(8-ethyl-2-(piperidin-3-ylamino)quinazolin-6-yl)-2-fluoropbenyl) benzenesulfon-amide] | ≤ 5 |
